Results from patent US20230183712A1, “METHODS FOR E[…] ACID AMMONIA LYASE ENZYMES AND ENZYMES THEREBY OBTAINED” (priority 2020, published 2023).

Legend:
[1] = biological target: T1, Anabaena variabilis phenylalanine ammonia-lyase (DM-rAvPAL/AvPAL*; C503S and C565S, SEQ ID NO:2) variant M222L (Trichormus variabilis, UniProt Q3M5Z3, C503S/C565S/M222L); assay: Enzyme kinetics: production of tCA from phe (Michaelis-Menten), mutant M222L; type: biochemical; conditions: PBS pH 7.4, 37° C.
T1 construct: His-tag (N); made in house; host or cells: E. coli MG1655 rph+
Description: (§1) Enzyme activity assays. The activity of all AvPAL constructs was measured by production of tCA over time. Cultures were sonicated on ice using a Sonifier SFX 150 (Branson Ultrasonics, Danbury, Conn.) (2 s on; 10 s off; 4 min; 55%), and debris was separated from the lysate by centrifuging at 10,000×g for 10 min. Ten microliters of lysate were then mixed with 190 μL of pre-warmed 50 mM phe (Tokyo Chemical Industry, Portland, Oreg.) in phosphate buffered saline (PBS) (137 mM NaCl, 2.7 mM KCl, 10 mM Na2HPO4, 2 mM KH2PO4, pH 7.4) in a 96-well F-bottom UVStar (Greiner Bio-One, Kremsmünster, Austria) microtiter plate. Absorbance at 290 nm was measured every 30 s at 37° C. using a SpectraMax M3 (Molecular Devices) plate reader.
(§2) Each construct included a N-term His-tag used for immobilized metal affinity chromatography (IMAC) purification. Briefly, overnight cell cultures were sonicated in 3 mL Equilibration buffer (300 mM NaCl, 50 mM NaH2PO4, 10 mM imidazole, 15% (w/v) glycerol, pH 8.0). The lysate was loaded onto a prepared column with 2 mL TALON Metal Affinity Resin (Clontech Laboratories, Inc., Mountain View, Calif.). […] Protein concentration was measured by Bradford method using bovine serum albumin (BSA) as the standard.
(§3) Enzyme kinetics. […] The activity of 0.1 μg of protein was measured by the production of tCA over 10 min by recording the absorbance of the reaction mix at 290 nm. […]

[2] = biological target: T2, Anabaena variabilis phenylalanine ammonia-lyase (DM-rAvPAL/AvPAL*; C503S and C565S, SEQ ID NO:2) variant L4P/G218S (Trichormus variabilis, UniProt Q3M5Z3, C503S/C565S/G218S/L4P); assay: Enzyme kinetics: production of tCA from phe (Michaelis-Menten), mutant L4P/G218S; type: biochemical; conditions: relative to parental AvPAL*; phe 35 μM to 17.5 mM, PBS pH 7.4, 37° C.; FIG. 4a
T2 construct: His-tag (N); made in house; host or cells: E. coli MG1655 rph+
Description: as §1, §2, §3

[3] = test system: E. coli; assay: Growth of E. coli in media supplemented with tCA; type: cell-based, Escherichia coli; conditions: MM^full,opt, 1.5 mM tCA
Description: Microbial strains, plasmids, and growth conditions. All Escherichia coli strains were cultured in lysogeny broth (LB) (VWR International, Randor, Pa.) at 37° C. with rotary shaking at 250 rpm. All media was solidified using 1.5% (w/v) agar (Teknova Inc, Hollister, Calif.). Minimal media (MM) conditions are described in the “Optimization of growth-coupled enrichment” section below. E. coli DH5a was used as a host for the construction of the expression vectors and cultured as above only supplemented with chloramphenicol (25 μg/mL) (RPI Corp). Initial expression in MM was performed in E. coli MG1655(DE3)^ΔendA,ΔrecA and later moved to E. coli MG1655^rph+ for final experiments.
Optimization of growth-coupled enrichment. Growth was measured by seeding cultures at OD600 0.05 and monitoring cell density over time. Initial experiments used a base nitrogen-deficient minimal media (MM^N-) (33.7 mM Na2HPO4, 22 mM KH2PO4, 8.55 mM NaCl, 1 mM MgSO4, 0.1 mM CaCl2), 10 μM FeSO4, 0.4% (v/v) glycerol, 10 μg/mL thiamine, 20 μM IPTG, 12.5 μg/mL chloramphenicol, pH 7.4) that was supplemented with 9.35 mM phe (MM^phe,init) or 9.35 mM NH4Cl) Variable conditions were changed across the parameters outlined in FIG. 2, as well as moving to a more favorable strain for growth in minimal media. […]

T2 sequence (Q3M5Z3 whole entry L4P/G218S/C503S/C565S, looked up): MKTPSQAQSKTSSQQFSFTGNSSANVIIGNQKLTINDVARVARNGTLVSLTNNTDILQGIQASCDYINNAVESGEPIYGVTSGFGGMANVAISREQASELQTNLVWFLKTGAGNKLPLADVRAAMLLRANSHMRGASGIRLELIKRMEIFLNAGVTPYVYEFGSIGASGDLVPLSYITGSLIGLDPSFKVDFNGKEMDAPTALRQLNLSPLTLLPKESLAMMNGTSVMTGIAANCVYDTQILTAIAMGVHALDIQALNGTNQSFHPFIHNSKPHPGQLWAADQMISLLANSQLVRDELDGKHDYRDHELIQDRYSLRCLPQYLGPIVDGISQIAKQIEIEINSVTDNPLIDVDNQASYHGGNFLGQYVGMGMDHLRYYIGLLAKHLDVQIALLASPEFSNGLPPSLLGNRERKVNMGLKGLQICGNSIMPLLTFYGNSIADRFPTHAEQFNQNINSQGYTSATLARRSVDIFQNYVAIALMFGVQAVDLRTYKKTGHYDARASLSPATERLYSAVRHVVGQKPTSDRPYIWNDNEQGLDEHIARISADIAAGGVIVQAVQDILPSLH
T1 sequence (Q3M5Z3 whole entry M222L/C503S/C565S, looked up): as the sequence (Q3M5Z3 whole entry L4P/G218S/C503S/C565S, looked up) above, with P4L, S218G, M222L counted along it

Row | Structure (SMILES) | catalytic efficiency (relative to AvPAL*) ([1]; compared to AvPAL*) | kcat (increase over parental AvPAL*) ([1]; relative to parental AvPAL*, phe 35 μM to 17.5 mM, FIG. 4a) | KM (fold higher than parent) [2] [×] | kcat (increase over parental AvPAL*) [2] | growth of cells supplemented with tCA [3]
1 | N[C@@H](Cc1ccccc1)C(=O)O [phe, phenylalanine] | improved catalytic efficiency | 70-80% | ~2.5 | 70-80% | 
2 | O=C(O)/C=C/c1ccccc1 [tCA, trans-cinnamic acid] |  |  |  |  | impaired growth
